According to patent publication US6255098A, “DS11 (KCTC 0231BP), novel Bacillus sp. strain and novel phytase produced by it” (priority 1996, dated 2001):

Molecular target: T1, novel phytase produced by Bacillus sp. DS11 (KCTC 0231BP), N-terminal amino acid sequence SEQ ID NO: 1 (Bacillus sp., UniProt O66037)
T1 construct: made in house; host or cells: Bacillus sp; DS11 (KCTC 0231BP), native producer strain; enzyme purified from culture supernatant
Experiment: biochemical
Type: biochemical
Conditions: for enzyme activity with additive (Non-addition = 100): 30 min
Description: The potency of produced enzyme was measured as follows: By using a substrate, comprising 2 mM phytic acid sodium salts and 2 mM CaCl2 in 0.1 M Tris buffer solution (pH 7.0), the enzyme was reacted at 37° C. for 30 minutes to measure the amount of phosphoric acid generated. One unit of the enzymatic potency is equivalent to the enzymatic amount degrading 1 μ mol of inorganic phosphate per 1 minute. As a result of said measurement, the novel enzyme has the enzymatic potency of 0.3 unit per protein mg. The maximum amount of enzyme in fermentation yielding 0.6 unit/mg was obtained when 30 l of strains, a working volume, was charged to a 50 l fermenter and cultivated at 37° C. for 48 hours under the following conditions: air influx--0.8 vvm; stirring rate--150 rpm.
2 l of novel strain solution, cultivated according to the procedure as described in said Example, was centrifuged for 15 minutes. Then, the supernatant solution was saturated with 50% acetone to precipitate proteins and the crude enzyme solution passed through dialysis membrane was purified on a column containing phenyl sepharose CL-4B, Resource S and superose 12 HR 10/30 (all of which are manufactured by Pharmacia, Sweden) so as to isolate the phytase enzyme only. The analytical results by said column are represented in the attached drawing FIG. 2.

[1] = 0.5 h, pH 7, read-out: enzyme activity with additive (Non-addition = 100)

T1 sequence (O66037 31-383): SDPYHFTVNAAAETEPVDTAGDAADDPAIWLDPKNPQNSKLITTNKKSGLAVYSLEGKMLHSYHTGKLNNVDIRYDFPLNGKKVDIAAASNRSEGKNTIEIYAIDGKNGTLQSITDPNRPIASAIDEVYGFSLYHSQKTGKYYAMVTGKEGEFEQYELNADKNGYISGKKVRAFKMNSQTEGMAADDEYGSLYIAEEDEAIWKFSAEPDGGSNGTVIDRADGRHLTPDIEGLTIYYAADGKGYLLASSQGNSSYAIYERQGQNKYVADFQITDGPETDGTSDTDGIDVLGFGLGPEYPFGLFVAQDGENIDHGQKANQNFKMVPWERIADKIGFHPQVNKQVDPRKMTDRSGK

Structure (SMILES) | inhibition of enzyme activity (in words) | remaining activity at 1000 µM [1] [%] | remaining activity at 5000 µM [1] [%] | enzyme activity with additive (Non-addition = 100) (additive concentration 1 mM) | enzyme activity with additive (Non-addition = 100) (additive concentration 5 mM)
O=C(O)CN(CCN(CC(=O)O)CC(=O)O)CC(=O)O [EDTA] | inhibited the entire enzyme activity | 7.5 | 7.6 |  | 
O=S(=O)(F)Cc1ccccc1 [PMSF] |  |  |  | 86 | 88
